This is an account of results in ChEMBL document CHEMBL4130461, “New chemotype of selective and potent inhibitors of human delta 24-dehydrocholesterol reductase” (Eur J Med Chem, 2017).

Structures can show the parent of a compound that is named as a salt. Activity calls are given as the source filed them. The rule behind the calls is not given here.

In data set [1] the test system is HL-60. The data set is described as follows: Induction of sterol accumulation in human HL60 cells assessed as lathosterol accumulation at 1 uM incubated for 24 hrs by GC-MS analysis. The format is functional, cell-based.
The subject of data set [2] is HL-60. The data set is described as follows: cells. The note with it: Homo sapiens.
Description: Cytotoxicity in human HL60 cells by MTT assay
Data set [3] deals with HL-60. The data set is described as follows: Induction of sterol accumulation in human HL60 cells assessed as desmosterol accumulation at 1 uM incubated for 24 hrs by GC-MS analysis. The data set is classed as functional, cell-based.
For data set [4], the system named is HL-60. Kind of data set: Induction of sterol accumulation in human HL60 cells assessed as holesta-7,24-dien-3beta-ol accumulation at 50 uM incubated for 24 hrs by GC-MS analysis. The format is functional, cell-based.
Data set [5] concerns HL-60. The data set is described as follows: Induction of sterol accumulation in human HL60 cells assessed as zymosterol accumulation at 50 uM incubated for 24 hrs by GC-MS analysis. The format is functional, cell-based.
Data set [6] concerns HL-60. Kind of data set: Induction of sterol accumulation in human HL60 cells at 1 uM incubated for 24 hrs by GC-MS analysis. The data set is classed as functional, cell-based.
In data set [7] the test system is HL-60. Kind of data set: Induction of sterol accumulation in human HL60 cells at 50 uM incubated for 24 hrs by GC-MS analysis. The format is functional, cell-based.
Data set [8] has as its system HL-60. The data set is described as follows: Induction of sterol accumulation in human HL60 cells at 0.1 uM incubated for 24 hrs by GC-MS analysis. The data set is classed as functional, cell-based.
Data set [9] deals with HL-60. Kind of data set: Cytotoxicity in human HL60 cells at 50 uM by MTT assay. The format is cell-based. The note with it: hl-60, 50 µM.
Data set [10] has as its system HL-60. The data set is described as follows: Induction of sterol accumulation in human HL60 cells assessed as zymosterol accumulation at 1 uM incubated for 24 hrs by GC-MS analysis. The data set is classed as functional, cell-based.
For data set [11], the system named is HL-60. Kind of data set: Induction of sterol accumulation in human HL60 cells assessed as holesta-7,24-dien-3beta-ol accumulation at 1 uM incubated for 24 hrs by GC-MS analysis. The format is functional, cell-based.
For data set [12], the system named is HL-60. Kind of data set: Induction of sterol accumulation in human HL60 cells assessed as desmosterol accumulation at 50 uM incubated for 24 hrs by GC-MS analysis. The data set is classed as functional, cell-based.
Data set [13] concerns HL-60. The data set is described as follows: Induction of sterol accumulation in human HL60 cells assessed as lathosterol accumulation at 50 uM incubated for 24 hrs by GC-MS analysis. The data set is classed as functional, cell-based.
For data set [14], the target named is T1, Lathosterol oxidase (Homo sapiens) (UniProt O75845).
T1 sequence (whole entry): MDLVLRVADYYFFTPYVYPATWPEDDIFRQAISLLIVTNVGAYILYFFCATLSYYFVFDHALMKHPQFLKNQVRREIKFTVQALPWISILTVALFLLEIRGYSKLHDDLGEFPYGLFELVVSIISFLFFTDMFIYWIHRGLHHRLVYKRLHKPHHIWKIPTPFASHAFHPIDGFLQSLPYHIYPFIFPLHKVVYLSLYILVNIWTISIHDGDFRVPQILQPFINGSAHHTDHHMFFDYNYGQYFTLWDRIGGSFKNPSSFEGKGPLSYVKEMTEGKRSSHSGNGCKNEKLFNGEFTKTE
Kind of data set: Inhibition of C5-desaturase in human HL60 cells assessed as compound level causing induction of sterol accumulation incubated for 24 hrs by GC-MS analysis. The data set is classed as cell-based.

For data set [15], the system named is Mus musculus. Kind of data set: Induction of desmosterol accumulation in C57BL/6 mouse blood at 500 ug/day, iv dosed daily for 5 days byGC-MS analysis. The data set is classed as functional.
For data set [16], the system named is HL-60. The data set is described as follows: Intracellular drug accumulation in human HL60 cells at 10 uM incubated for 24 hrs by GC-MS analysis. The format is ADME, cell-based. The note with it: hl-60, 24 h.
The subject of data set [17] is HL-60. The data set is described as follows: Extracellular drug accumulation in human HL60 cells at 10 uM incubated for 24 hrs by GC-MS analysis. Particulars: hl-60, 24 h. The format is ADME, cell-based.
A short description of data set [18]: Drug metabolism in human HL60 cells at 10 uM incubated for 24 hrs by GC-MS analysis. The data set is classed as ADME, cell-based. Particulars: hl-60, 24 h.
Data set [19] deals with Mus musculus. The data set is described as follows: Liver toxicity in C57BL/6 mouse assessed as effect on ALT levels at 500 ug/day, iv dosed daily for 5 days. The data set is classed as organism-based. Particulars: in vivo, 120 h.
Data set [20] concerns Mus musculus. Kind of data set: Acute liver toxicity in C57BL/6 mouse at 500 ug/day, iv dosed daily for 5 days. The data set is classed as organism-based. Particulars: in vivo, 120 h.
Data set [21] relates to Mus musculus. The data set is described as follows: Reduction in cholesterol level in C57BL/6 mouse blood at 500 ug/day, iv dosed daily for 5 days byGC-MS analysis. The format is functional, organism-based.
Data set [22] relates to Mus musculus. Kind of data set: Liver toxicity in C57BL/6 mouse assessed as effect on AST levels at 500 ug/day, iv dosed daily for 5 days. Particulars: in vivo, 120 h. The data set is classed as organism-based.

`CCCC(=O)NC[C@@H](C)[C@H]1CC[C@H]2C3=CC[C@H]4C[C@@H](OC(C)=O)CC[C@]4(C)[C@H]3CC[C@]12C`: the outcome with HL-60 [1], with HL-60 [3], in the data set on HL-60 [4] and in the data set on HL-60 [5] was Active. Moreover, the IC50 in the data set on HL-60 [2] is > 50 µM.

Regarding `CC(=O)O[C@H]1CC[C@@]2(C)[C@@H](CC=C3[C@@H]2CC[C@]2(C)[C@@H]([C@H](C)C=O)CC[C@@H]32)C1`, the IC50 in the data set with HL-60 [2] is > 50 µM. Also, the outcome with HL-60 [6] and in the data set with HL-60 [7] was inactive.

Regarding `CC(C)=CCC[C@@H](C)[C@H]1CC[C@H]2C3=CC[C@H]4C[C@@H](O)CC[C@]4(C)[C@H]3CC[C@]12C`, in the data set with HL-60 [8], the result was inactive.

`CCN(CC)CCOc1ccc(C(O)(Cc2ccc(Cl)cc2)c2ccc(C)cc2)cc1` (stereo not drawn) [TRIPARANOL]: in the data set with HL-60 [9], the Activity entry is “Toxic”. Also, the result with HL-60 [1], in the data set with HL-60 [10], in the data set with HL-60 [3] and in the data set on HL-60 [11] was Active. In addition, the half-maximal inhibitory concentration (IC50) with HL-60 [2] turned out to be 10 µM.

As for `CC(=O)O[C@H]1CC[C@@]2(C)[C@@H](CC=C3[C@@H]2CC[C@]2(C)[C@@H]([C@H](C)C(=O)NO)CC[C@@H]32)C1`, in the data set on HL-60 [9], the Activity entry is reported as “Toxic”. The compound further displayed a half-maximal inhibitory concentration (IC50) in the data set on HL-60 [2] of 18 µM. Moreover, in the data set on HL-60 [6], the outcome was inactive.

As for `CC(=O)O[C@H]1CC[C@@]2(C)[C@@H](CC=C3[C@@H]2CC[C@]2(C)[C@@H]([C@H](C)C(=O)N(C)C)CC[C@@H]32)C1`, in the data set on HL-60 [2], the IC50 is > 50 µM. Besides, the result in the data set on HL-60 [6] and with HL-60 [7] was inactive.

`C[C@H](O)[C@H]1CC[C@H]2[C@@H]3CC=C4C[C@@H](O)CC[C@]4(C)[C@H]3CC[C@]12C`: the IC50 in the data set on HL-60 [2] was > 50 µM. Besides, the result in the data set on HL-60 [6] and with HL-60 [7] was inactive.

Take `CCONC(=O)[C@@H](C)[C@H]1CC[C@H]2C3=CC[C@H]4C[C@@H](OC(C)=O)CC[C@]4(C)[C@H]3CC[C@]12C`: the Activity entry in the data set with HL-60 [9] is listed as “Toxic”. The compound also came in with an IC50 in the data set with HL-60 [2] of 18 µM. Moreover, the outcome in the data set on HL-60 [6] was inactive.

In the data set on HL-60 [2], `CC(=O)O[C@H]1CC[C@@]2(C)[C@@H](CC=C3[C@@H]2CC[C@]2(C)[C@@H]([C@H](C)C(=O)N(C)CC(C)C)CC[C@@H]32)C1` came in with a half-maximal inhibitory concentration (IC50) of 47 µM. For the same compound, in the data set with HL-60 [6], the result was inactive. Besides, the result in the data set with HL-60 [12] was Active.

With `CC(C)=CCC[C@@H](C)[C@H]1CC[C@H]2C3=C(CC[C@]12C)[C@@]1(C)CC[C@H](O)C[C@@H]1CC3`, in the data set with HL-60 [8], the outcome was inactive.

As to `CC(C)CCC[C@@H](C)[C@H]1CC[C@H]2C3=CC[C@H]4C[C@@H](O)CC[C@]4(C)[C@H]3CC[C@]12C`, the outcome with HL-60 [8] was inactive.

In the case of `CN1CCN(CCCN2c3ccccc3Sc3ccc(C(F)(F)F)cc32)CC1` [TRIFLUOPERAZINE HYDROCHLORIDE], the outcome in the data set on HL-60 [1], in the data set on HL-60 [13], with HL-60 [12] and in the data set with HL-60 [3] was Active. Further, in the data set on HL-60 [2], the IC50 was determined as 16 µM. The INH in data set [14] is 1 to 50 µM.

For `CNC[C@@H](C)[C@H]1CC[C@H]2C3=CC[C@H]4C[C@@H](OC(C)=O)CC[C@]4(C)[C@H]3CC[C@]12C`, the Activity result in the data set on HL-60 [9] is on record as “Toxic”. Further, the result in the data set with HL-60 [1], with HL-60 [10], with HL-60 [3] and with HL-60 [11] was Active. Further, in the data set with HL-60 [2], the IC50 is 20 µM.

`CC(=O)O[C@H]1CC[C@@]2(C)[C@@H](CC=C3[C@@H]2CC[C@]2(C)[C@@H]([C@H](C)C(=O)O)CC[C@@H]32)C1`: the IC50 in the data set with HL-60 [2] was > 50 µM. For the same compound, the result with HL-60 [6] and with HL-60 [7] was inactive.

Consider `CC(=O)O[C@H]1CC[C@@]2(C)[C@@H](CC=C3[C@@H]2CC[C@]2(C)[C@@H]([C@H](C)COC=O)CC[C@@H]32)C1`, for which the Activity is 1 µg/mL with Mus musculus [15], “Non-Toxic” with Mus musculus [19], “Non-Toxic” in the data set on Mus musculus [20] and “Non-Toxic” in the data set with Mus musculus [22]. Besides, the Drug uptake came to 1 µM in the data set on HL-60 [16] and 2 µM in the data set on HL-60 [17]. The 50% inhibitory concentration (IC50) with HL-60 [2] was > 50 µM. Moreover, the result in the data set with HL-60 [12], in the data set on HL-60 [3] and in the data set on Mus musculus [21] was Active. Moreover, the Drug metabolism result in data set [18] is listed as “Metabolite_Notdetected”.

For the compound `C[C@H](CO)[C@H]1CC[C@H]2C3=CC[C@H]4C[C@@H](O)CC[C@]4(C)[C@H]3CC[C@]12C`, the Drug uptake with HL-60 [16] was determined as 1 µM; in the data set with HL-60 [17], 6 µM. In addition, in the data set with HL-60 [2], the half-inhibitory concentration (IC50) is > 50 µM. The result with HL-60 [12] and with HL-60 [3] was Active.
